Source: patent publication US8791132B2, “Compounds and methods for treatment of hypertension” (Medivation Technologies, Inc., priority 2011, dated 2014)
“And” between values parts separate entries of the source, which are not always exact repeats. Equal values may be shown once. Read-outs that look alike come from different tables or passages of the source.

Columns and labels:
[1] = target: T1, human recombinant adrenergic α2B receptor (Homo sapiens, UniProt P18089); test: Radioligand binding, adrenergic α2B ([3H]Rauwolscine); details: for inhibition at 0.03 µM / inhibition at 0.1 µM / Percentage inhibition of ligand binding, Adrenergic α2B (0.03 μM): [3H]Rauwolscine; for inhibition at 0.1 µM: read-out: Percentage inhibition of ligand binding, Adrenergic α2B (0.1 μM), compound at 0.1 μM; for Ki: read-out: Ki α2B
T1 construct: expressed in transfected cells; host or cells: CHO-K1
T1 sequence (P18089 1-450): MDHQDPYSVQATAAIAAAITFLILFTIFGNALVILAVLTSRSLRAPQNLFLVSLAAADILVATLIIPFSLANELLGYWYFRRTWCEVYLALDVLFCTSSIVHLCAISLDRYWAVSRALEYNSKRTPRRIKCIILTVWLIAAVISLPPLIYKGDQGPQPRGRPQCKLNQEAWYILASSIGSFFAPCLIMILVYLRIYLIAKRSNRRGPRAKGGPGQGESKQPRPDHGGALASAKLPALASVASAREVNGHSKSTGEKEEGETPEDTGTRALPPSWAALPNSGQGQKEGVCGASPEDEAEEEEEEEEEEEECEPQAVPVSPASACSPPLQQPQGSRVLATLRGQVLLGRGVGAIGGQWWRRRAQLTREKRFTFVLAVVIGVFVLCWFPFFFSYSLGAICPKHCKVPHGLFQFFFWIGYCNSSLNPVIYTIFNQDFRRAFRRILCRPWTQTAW
Method in brief: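 Receptor expressed in CHO-K1 cells, assayed in 50 mM Tris-HCl pH 7.4 with 12.5 mM MgCl2, 1 mM EDTA and 0.2% BSA. Compounds were incubated with 2.5 nM [3H]Rauwolscine for 60 min at 25° C; 10 μM Prazosin defined non-specific binding. Filter counting gave percent inhibition of specific binding.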

[2] = target: T2, human recombinant adrenergic α2A receptor (Homo sapiens, UniProt P08913); test: Radioligand binding, adrenergic α2A ([3H]MK-912); details: for inhibition at 0.1 µM / Percentage inhibition of ligand binding, Adrenergic α2A (0.1 μM): [3H]MK-912
T2 construct: expressed in transfected cells; host or cells: insect Sf9 cells
T2 sequence (P08913 1-465): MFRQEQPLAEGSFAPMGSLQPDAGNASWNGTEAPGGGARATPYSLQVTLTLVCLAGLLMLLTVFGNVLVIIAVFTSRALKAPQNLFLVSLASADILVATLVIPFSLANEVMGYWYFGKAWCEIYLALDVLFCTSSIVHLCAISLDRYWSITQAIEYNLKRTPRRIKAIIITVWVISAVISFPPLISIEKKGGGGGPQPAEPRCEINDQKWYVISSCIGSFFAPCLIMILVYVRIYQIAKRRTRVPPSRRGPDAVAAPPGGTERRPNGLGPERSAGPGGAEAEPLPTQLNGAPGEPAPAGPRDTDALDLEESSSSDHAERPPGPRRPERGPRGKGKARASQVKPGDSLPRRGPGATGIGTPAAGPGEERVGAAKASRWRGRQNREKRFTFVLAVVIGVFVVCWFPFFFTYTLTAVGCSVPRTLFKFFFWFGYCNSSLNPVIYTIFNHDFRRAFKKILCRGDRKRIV
Method in brief: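 Displacement of 1 nM [3H]MK-912 from receptor produced in insect Sf9 cells was measured after 60 min at 25 °C. Readout: percent inhibition of specific binding.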

[3] = target: T3, rat adrenergic α1B receptor (Rattus norvegicus, UniProt P15823); test: Radioligand binding, adrenergic α1B ([3H]Prazosin); details: [3H]Prazosin
T3 construct: rat adrenergic α1B receptor obtained from Wistar Rat liver; from tissue; host or cells: Wistar rat liver
T3 sequence (P15823 1-515): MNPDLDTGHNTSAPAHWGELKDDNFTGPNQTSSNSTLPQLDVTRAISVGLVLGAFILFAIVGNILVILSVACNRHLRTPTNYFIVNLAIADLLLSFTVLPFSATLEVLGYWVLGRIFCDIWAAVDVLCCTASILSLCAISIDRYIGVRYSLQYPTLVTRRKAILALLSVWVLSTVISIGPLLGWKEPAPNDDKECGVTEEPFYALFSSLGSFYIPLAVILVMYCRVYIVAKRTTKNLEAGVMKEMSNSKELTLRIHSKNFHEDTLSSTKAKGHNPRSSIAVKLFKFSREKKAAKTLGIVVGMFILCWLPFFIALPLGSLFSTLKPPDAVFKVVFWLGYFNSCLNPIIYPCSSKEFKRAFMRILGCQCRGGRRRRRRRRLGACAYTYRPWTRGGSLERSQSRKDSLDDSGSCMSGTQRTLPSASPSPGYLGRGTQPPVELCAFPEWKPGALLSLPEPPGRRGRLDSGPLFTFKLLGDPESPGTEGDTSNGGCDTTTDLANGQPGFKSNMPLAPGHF
Method in brief: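 Rat α1B receptor from Wistar rat liver was incubated with 0.25 nM [3H]prazosin for 60 min at 25 °C in 50 mM Tris-HCl, pH 7.4, 0.5 mM EDTA. Non-specific binding was defined with 10 μM phentolamine. Bound radioligand was measured by filtration and counting, reported as percent inhibition of specific binding.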

[4] = compound at 0.03 μM, repeat assays, each datapoint shown, read-out: Percentage inhibition of ligand binding, Adrenergic α2B
[5] = compound at 0.1 μM, repeat assays, each datapoint shown, read-out: Percentage inhibition of ligand binding, Adrenergic α2A
[6] = compound at 0.1 μM, repeat assays, each datapoint shown, read-out: Percentage inhibition of ligand binding, Adrenergic α1B
[7] = read-out: Percentage inhibition of ligand binding, Adrenergic α2A (0.1 μM), compound at 0.1 μM, repeat datapoints each shown
[8] = read-out: Percentage inhibition of ligand binding, Adrenergic α1B (0.1 μM), compound at 0.1 μM, repeat datapoints each shown
[9] = read-out: Percentage inhibition of ligand binding, Adrenergic α2B (0.03 μM), compound at 0.03 μM, repeat datapoints each shown
[10] = compound at 0.03 μM, repeat datapoints each shown
[11] = compound at 0.1 μM, repeat datapoints each shown

SMILES	inhibition at 0.1 µM [2, 7]	inhibition at 0.1 µM [3, 8]	inhibition at 0.03 µM [1, 9]	Percentage inhibition of ligand binding, Adrenergic α2B (0.03 μM) [1, 10]	Percentage inhibition of ligand binding, Adrenergic α2A (0.1 μM) [2, 11]	Percentage inhibition of ligand binding, Adrenergic α1B (0.1 μM) [3, 11]	also measured
Cc1ccc2c(c1)c1c(n2/C=C/c2ccncc2)CCNC1 [compound 79, 8-methyl-5-(2-(pyridin-4-yl)vinyl)-2,3,4,5-tetrahydro-1H-pyrido[4,3-b]indole]	–	–	–	–	–	–	inhibition at 0.03 µM [1, 4]: 77%; inhibition at 0.1 µM [2, 5]: 19%; inhibition at 0.1 µM [3, 6]: 34%
C/C(=C/n1c2c(c3cc(C)ccc31)CN(C)CC2)c1cn[nH]c1 [compound 80]	–	–	–	–	–	–	inhibition at 0.03 µM [1, 4]: 81%; inhibition at 0.1 µM [2, 5]: 12%; inhibition at 0.1 µM [3, 6]: 49%
Cc1cccc2c3c(n(CC(O)c4ccncc4)c12)CCN(C)C3 (centres unmarked) [compound 82, 2-(2,6-dimethyl-1,2,3,4-tetrahydro-pyrido[4,3-b]indol-5-yl)-1-pyridin-4-yl-ethanol]	–	–	–	–	–	–	inhibition at 0.03 µM [1, 4]: 79%; inhibition at 0.1 µM [2, 5]: 5%; inhibition at 0.1 µM [3, 6]: 16%
Cc1ccc2c(c1)c1c(n2CCc2cncc(F)c2)CCN(C)C1 [compound 117, 5-[2-(5-fluoro-pyridin-3-yl)-ethyl]-2,8-dimethyl-2,3,4,5-tetrahydro-1H-pyrido[4,3-b]indole]	18%	59%	–	–	–	–	inhibition at 0.1 µM ([1]; repeat datapoints each shown): 68%
C=C(Cn1c2c(c3cc(C)ccc31)CN(C)CC2)c1cccnc1 [compound 132]	19%	28%	91%	–	–	–	–
Cc1ccc2c(c1)c1c(n2CC(O)c2ccc(C(N)=O)cc2)CCN(C)C1 (centres unmarked) [compound 139, 4-[2-(2,8-dimethyl-1,2,3,4-tetrahydro-pyrido[4,3-b]indol-5-yl)-1-hydroxy-ethyl]-benzamide]	–	–	–	59% and 83%	−2%	72%	Ki [1]: 8.12 nM; inhibition at 0.1 µM ([1]; repeat datapoints each shown): 87%; Ki [2]: 390 nM; inhibition at 0.03 µM ([3]; read-out: Percentage inhibition of ligand binding, Adrenergic α1B (0.03 μM), compound at 0.03 μM, repeat datapoints each shown): 46%
Cc1ccc2c(c1)c1c(n2CC(O)c2ccc(C#N)nc2)CCN(C)C1 (centres unmarked) [compound 140, 5-[2-(2,8-dimethyl-1,2,3,4-tetrahydro-pyrido[4,3-b]indol-5-yl)-1-hydroxy-ethyl]-pyridine-2-carbonitrile]	–	–	–	49%	−2%	37%	–
Cc1ccc2c(c1)c1c(n2CC(OC(=O)N(C)C)c2ccncc2)CCN(C)C1 (centres unmarked) [compound 141, N,N-dimethyl-carbamic acid 2-(2,8-dimethyl-1,2,3,4-tetrahydro-pyrido[4,3-b]indol-5-yl)-1-pyridin-4-yl-ethyl ester]	–	23%	76%	–	5%	–	–
Cc1cnc2c(c1)c1c(n2CC(O)c2ccc(C#N)cc2)CCN(C)C1 (centres unmarked) [compound 145]	6%	49%	61%	–	–	–	–
Cc1ccc2c(c1)c1c(n2CC(OC(=O)c2ccncc2)c2ccncc2)CCN(C)C1 (centres unmarked) [compound 147, isonicotinic acid 2-(2,8-dimethyl-1,2,3,4-tetrahydro-pyrido[4,3-b]indol-5-yl)-1-pyridin-4-yl-ethylester]	–	–	–	91% and 102%	19%	7%	Ki [1]: 1.49 nM
Cc1ccc2c(c1)c1c(n2CC(N)c2ccncc2)CN(C)CC1 (centres unmarked) [compound 153, 2-(2,6-dimethyl-3,4-dihydro-1H-pyrido[3,4-b]indol-9(2H)-yl)-1-(pyridin-4-yl)ethanamine]	6%	17%	17%	–	–	–	–
Cc1ccc2c(c1)c1c(n2CC(N)c2ccncc2)CCN(C)CC1 (centres unmarked) [compound 154, 2-(3,9-dimethyl-2,3,4,5-tetrahydroazepino[4,5-b]indol-6(1H)-yl)-1-(pyridin-4-yl)ethanamine]	–	–	–	58%	15%	86%	–
Cc1cnc2c(c1)c1c(n2CC(N)c2ccncc2)CCN(C)C1 (centres unmarked) [compound 156]	1%	21%	6%	–	–	–	–
